Reference: ChEMBL document CHEMBL2375302, “Synthesis, antimicrobial, antiquorum-sensing, antitumor and cytotoxic activities of new series of fused [1,3,4]thiadiazoles” (Eur J Med Chem, 2013)
≈ marks a conversion by molar mass, not a printed value.

Legend:
[1] = (§1) Toxicity against brine shrimp larvae assessed as mortality after 24 hrs by binocular microscopic analysis; type: organism-based; conditions: artemia salina, in vivo
Artemia salina = assay: as §1; type: organism-based; conditions: in vivo, 24 h
[2] = Toxicity against brine shrimp larvae assessed as mortality at 10 ug/mL after 24 hrs by binocular microscopic analysis relative to control; type: organism-based; conditions: artemia salina, in vivo
[3] = Toxicity against brine shrimp larvae assessed as mortality at 100 ug/mL after 24 hrs by binocular microscopic analysis relative to control; type: organism-based; conditions: artemia salina, in vivo
[4] = Toxicity against brine shrimp larvae assessed as mortality at 500 ug/mL after 24 hrs by binocular microscopic analysis relative to control; type: organism-based; conditions: artemia salina, in vivo
[5] = Toxicity against brine shrimp larvae assessed as mortality at 1000 ug/mL after 24 hrs by binocular microscopic analysis relative to control; type: organism-based; conditions: artemia salina, in vivo
[6] = tested on: Chromobacterium violaceum; assay: Antiquorum-sensing activity against Chromobacterium violaceum ATCC 12472 after 48 hrs; type: functional
Aspergillus flavus = assay: Antifungal activity against Aspergillus flavus 3372 at 5 mg/mL after 48 hrs; type: functional; conditions: Aspergillus flavus, 3372, 48 h; read-out: DIZ
Aspergillus fumigatus = assay: Antifungal activity against Aspergillus fumigatus Af293 at 5 mg/mL after 48 hrs; type: functional; conditions: Af293, 48 h, read-out: DIZ
Candida albicans = assay: Antifungal activity against Candida albicans at 5 mg/mL after 48 hrs; type: functional; conditions: read-out: DIZ
Staphylococcus aureus = assay: Antibacterial activity against Staphylococcus aureus at 5 mg/mL after 24 hrs; type: functional; conditions: read-out: DIZ
Bacillus cereus = assay: Antibacterial activity against Bacillus cereus at 5 mg/mL after 24 hrs; type: functional; conditions: read-out: DIZ
Escherichia coli = assay: Antibacterial activity against Escherichia coli at 5 mg/mL after 24 hrs; type: functional; conditions: read-out: DIZ

| Structure (SMILES) | LC50 at 24 h [1] | LC90 (Artemia salina) | mortality at 24 h, 10 ug/mL [2] | mortality at 24 h, 100 ug/mL [3] | mortality at 24 h, 500 ug/mL [4] | mortality at 24 h, 1000 ug/mL [5] | diameter of the inhibition zone (DIZ) [6] | zone of inhibition at 5000 µg/mL (Aspergillus flavus) | zone of inhibition at 5000 µg/mL (Aspergillus fumigatus) | zone of inhibition at 5000 µg/mL (Candida albicans) | zone of inhibition at 5000 µg/mL (Staphylococcus aureus) | zone of inhibition at 5000 µg/mL (Bacillus cereus) | zone of inhibition at 5000 µg/mL (Escherichia coli) |
| --- | --- | --- | --- | --- | --- | --- | --- | --- | --- | --- | --- | --- | --- |
| CCOC(=O)C1C(=O)N=C2SC(S(N)(=O)=O)=NN2C1c1ccc(Cl)cc1 (stereo unspecified) | 508 µg/mL (≈ 1220 µM) | 914.63 µg/mL (≈ 2190 µM) | 36.6% | 53.3% | 70% | 83.3% | 11 mm | < 2 mm | < 2 mm | < 2 mm | 3 mm | 4 mm | < 2 mm |
| CCOC(=O)C1C(=O)N=C2SC(S(N)(=O)=O)=NN2C1c1ccc(OC)c(OC)c1 (stereo unspecified) | 442 µg/mL (≈ 1000 µM) | 796.46 µg/mL (≈ 1800 µM) | 50% | 70% | 83.3% | 93.3% | 8 mm | < 2 mm | < 2 mm | 4 mm | 8 mm | 7 mm | < 2 mm |
| N#CC1C(=O)N=C2SC(S(N)(=O)=O)=NN2C1c1ccc(Cl)cc1 (stereo unspecified) | 660 µg/mL (≈ 1780 µM) | 1187.33 µg/mL (≈ 3210 µM) | 23.3% | 36.6% | 50% | 66.6% | 11 mm | < 2 mm | 6 mm | 8 mm | < 2 mm | < 2 mm | < 2 mm |
| COc1ccc(C2C(C#N)C(=O)N=C3SC(S(N)(=O)=O)=NN32)cc1OC (stereo unspecified) | 598 µg/mL (≈ 1510 µM) | 1076.55 µg/mL (≈ 2720 µM) | 36.6% | 50% | 60% | 70% | 8 mm | < 2 mm | 8 mm | 24 mm | 10 mm | 9 mm | < 2 mm |
| CN(C)c1ccc(C2C(C#N)C(=O)N=C3SC(S(N)(=O)=O)=NN32)cc1 (stereo unspecified) | 400 µg/mL (≈ 1060 µM) | 719.42 µg/mL (≈ 1900 µM) | 70% | 86.6% | 96.6% | 100% | 6 mm | < 2 mm | 8 mm | 32 mm | 7 mm | 6 mm | < 2 mm |
| Nc1c(/N=N/c2ccccc2)c(=O)nc2sc(S(N)(=O)=O)nn12 | 419 µg/mL (≈ 1190 µM) | 755.03 µg/mL (≈ 2150 µM) | 66.6% | 80% | 90% | 96.6% | <2 mm | < 2 mm | < 2 mm | 4 mm | 7 mm | 7 mm | 10 mm |
| Nc1c(/N=N/c2ccc(Br)cc2)c(=O)nc2sc(S(N)(=O)=O)nn12 | 460 µg/mL (≈ 1070 µM) | 827.2 µg/mL (≈ 1920 µM) | 46.6% | 66.6% | 80% | 90% | 12 mm | < 2 mm | 4 mm | 6 mm | 9 mm | 5 mm | < 2 mm |
| Cc1ccc(/N=N/c2c(N)n3nc(S(N)(=O)=O)sc3nc2=O)cc1 | 392 µg/mL (≈ 1070 µM) | 706.43 µg/mL (≈ 1930 µM) | 90% | 96.6% | 100% | 100% | 12 mm | 5 mm | 6 mm | 12 mm | 8 mm | 3 mm | 4 mm |
| COc1ccc(/N=N/c2c(N)n3nc(S(N)(=O)=O)sc3nc2=O)cc1 | 404 µg/mL (≈ 1060 µM) | 726.97 µg/mL (≈ 1910 µM) | 73.3% | 86.6% | 93.3% | 100% | 11 mm | 5 mm | < 2 mm | 6 mm | 8 mm | 3 mm | 5 mm |
| COc1ccc2c(c1)CCC1=C2N=C2SC(S(N)(=O)=O)=NN2C1c1ccc(Br)cc1 (stereo unspecified) | – | – | – | – | – | – | <2 mm | < 2 mm | 6 mm | 14 mm | < 2 mm | < 2 mm | < 2 mm |
| COc1ccc2c(c1)CCC1=C2N=C2SC(S(N)(=O)=O)=NN2C1c1ccc(Cl)cc1 (stereo unspecified) | 438 µg/mL (≈ 951 µM) | 788.78 µg/mL (≈ 1710 µM) | 50% | 66.6% | 80% | 96.6% | <2 mm | < 2 mm | < 2 mm | < 2 mm | < 2 mm | < 2 mm | < 2 mm |
| COc1ccc2c(c1)CCC1=C2N=C2SC(S(N)(=O)=O)=NN2C1c1ccc(OC)c(OC)c1 (stereo unspecified) | 455 µg/mL (≈ 936 µM) | 819.67 µg/mL (≈ 1680 µM) | 46.6% | 63.3% | 76.6% | 93.3% | – | – | – | – | – | – | – |
| N=c1cc(N)n2nc(S(N)(=O)=O)sc2n1 | – | – | – | – | – | – | <2 mm | < 2 mm | < 2 mm | < 2 mm | < 2 mm | < 2 mm | < 2 mm |
| NS(=O)(=O)C1=NN2C(=O)c3ccccc3NC(c3ccsc3)/N=C\2S1 (stereo unspecified) | 477 µg/mL (≈ 1210 µM) | 858.77 µg/mL (≈ 2180 µM) | 46.6% | 66.6% | 76.6% | 86.6% | 6 mm | < 2 mm | < 2 mm | < 2 mm | < 2 mm | < 2 mm | < 2 mm |
| NS(=O)(=O)C1=NN2CCC(=O)N=C2S1 | 399 µg/mL (≈ 1700 µM) | 717.7 µg/mL (≈ 3060 µM) | 70% | 90% | 96.6% | 100% | <2 mm | 10 mm | 8 mm | 12 mm | 16 mm | 4 mm | 11 mm |
| NS(=O)(=O)C1=NN2CC(=O)N=C2S1 | – | – | – | – | – | – | <2 mm | < 2 mm | < 2 mm | 5 mm | < 2 mm | < 2 mm | < 2 mm |
| NS(=O)(=O)C1=NN2C(=NC(=O)/C2=C\c2ccc(Br)cc2)S1 | 551 µg/mL (≈ 1420 µM) | 992.28 µg/mL (≈ 2560 µM) | 23.3% | 40% | 60% | 80% | <2 mm | < 2 mm | < 2 mm | 8 mm | 2 mm | 2 mm | < 2 mm |
| COc1ccc(/C=C2\C(=O)N=C3SC(S(N)(=O)=O)=NN32)cc1OC | 425 µg/mL (≈ 1150 µM) | 765.3 µg/mL (≈ 2080 µM) | 63.3% | 76.6% | 86.6% | 96.6% | <2 mm | 7 mm | 16 mm | 4 mm | 4 mm | 4 mm | < 2 mm |
| CC1(C)S[C@@H]2[C@H](NC(=O)[C@H](N)c3ccccc3)C(=O)N2[C@H]1C(=O)O [AMPICILLIN] | – | – | – | – | – | – | – | – | – | – | 14 mm | 3.5 mm | 23 mm |
| OC(Cn1cncn1)(Cn1cncn1)c1ccc(F)cc1F [FLUCONAZOLE] | – | – | – | – | – | – | – | < 2 mm | < 2 mm | 22 mm | – | – | – |
| O=c1[nH]cc(F)c(=O)[nH]1 [FLUOROURACIL] | 409 µg/mL (≈ 3150 µM) | 736.49 µg/mL (≈ 5660 µM) | 63.3% | 83.3% | 90% | 100% | – | – | – | – | – | – | – |
